Test results: ChEMBL document CHEMBL1152664, “Visual observation of G-quadruplex DNA with the label-free fluorescent probe silole with aggregation-induced emission” (Bioorg Med Chem, 2009)
The source made the active and inactive calls.

Legend:
Type in all cases: nucleic-acid assay
Nucleic Acid [1] = assay: Binding affinity to single stranded DNA20 assessed as formation of G-quadruplex DNA at 20 uM by UV light illumination photographic analysis in presence of exonuclase 1 and sodium cation
Nucleic Acid [2] = assay: Binding affinity to single stranded DNA20 assessed as formation of G-quadruplex DNA at 20 uM by UV light illumination photographic analysis in presence of exonuclase 1 and KCl
Nucleic Acid [3] = assay: Binding affinity to single stranded DNA18 assessed as formation of G-quadruplex DNA at 20 uM by UV light illumination photographic analysis in presence of exonuclase 1 and KCl
Nucleic Acid [4] = assay: Binding affinity to single stranded DNA20 assessed as formation of G-quadruplex DNA at 20 uM by UV light illumination photographic analysis in presence of exonuclase 1 and lithium cation
Nucleic Acid [5] = assay: Binding affinity to 21G telomeric DNA assessed as formation of G-quadruplex DNA at 20 uM by circular dichroism assay in presence of KCl and exonuclase 1
Nucleic Acid [6] = assay: Binding affinity to single stranded DNA23 assessed as formation of G-quadruplex DNA at 20 uM by UV light illumination photographic analysis in presence of exonuclase 1 and lithium cation
Nucleic Acid [7] = assay: Binding affinity to single stranded DNA23 assessed as formation of G-quadruplex DNA at 20 uM by circular dichroism assay in presence of lithium cation and exonuclase 1
Nucleic Acid [8] = assay: Binding affinity to 21G telomeric DNA assessed as formation of G-quadruplex DNA at 20 uM after 5 mins in KCl-deficient buffer by label-free fluorescence spectroscopy in presence of exonuclase 1
Nucleic Acid [9] = assay: Binding affinity to single stranded DNA23 assessed as formation of G-quadruplex DNA at 20 uM by UV light illumination photographic analysis in presence of exonuclase 1 and KCl
Nucleic Acid [10] = assay: Binding affinity to single stranded DNA20 assessed as formation of G-quadruplex DNA at 20 uM by circular dichroism assay in presence of lithium cation and exonuclase 1
Nucleic Acid [11] = assay: Binding affinity to 21G telomeric DNA assessed as formation of G-quadruplex DNA at 20 uM after 5 mins by label-free fluorescence spectroscopy in presence of LiCl and exonulease 1
Nucleic Acid [12] = assay: Binding affinity to 21G telomeric DNA assessed as formation of G-quadruplex DNA at 20 uM by circular dichroism assay in presence of exonuclase 1 and bis-(benzimidazole)aryl
Nucleic Acid [13] = assay: Binding affinity to single stranded DNA20 assessed as formation of G-quadruplex DNA at 20 uM by UV light illumination photographic analysis in presence of exonuclase 1 and bis-(benzimidazole)aryl
Nucleic Acid [14] = assay: Binding affinity to 21G telomeric DNA assessed as formation of G-quadruplex DNA at 20 uM after 45 mins in KCl-deficient buffer by label-free fluorescence spectroscopy in presence of exonuclase 1 and TMPyP4
Nucleic Acid [15] = assay: Binding affinity to single stranded DNA18 assessed as formation of G-quadruplex DNA at 20 uM by circular dichroism assay in presence of sodium cation and exonuclase 1
Nucleic Acid [16] = assay: Binding affinity to single stranded DNA20 assessed as formation of G-quadruplex DNA at 20 uM after 45 mins in KCl-deficient buffer by label-free fluorescence spectroscopy in presence of exonuclase 1 and TMPyP4
Nucleic Acid [17] = assay: Binding affinity to 21G telomeric DNA assessed as formation of c-myc G-quadruplex DNA at 20 uM by UV light illumination photographic analysis in presence of exonuclase 1 and KCl
Nucleic Acid [18] = assay: Binding affinity to 21G telomeric DNA assessed as formation of G-quadruplex DNA at 20 uM after 45 mins by label-free fluorescence spectroscopy in presence of exonuclase 1, KCl and TMPyP4
Nucleic Acid [19] = assay: Binding affinity to single stranded DNA18 assessed as formation of G-quadruplex DNA at 20 uM by circular dichroism assay in presence of KCl and exonuclase 1
Nucleic Acid [20] = assay: Binding affinity to 21G telomeric DNA assessed as formation of G-quadruplex DNA at 20 uM by UV light illumination photographic analysis in presence of exonuclase 1 and bis-(benzimidazole)aryl
Nucleic Acid [21] = assay: Binding affinity to 21G telomeric DNA assessed as formation of G-quadruplex DNA at 20 uM after 45 mins by label-free fluorescence spectroscopy in presence of exonuclase 1, Li+ cation and TMPyP4
Nucleic Acid [22] = assay: Binding affinity to single stranded DNA20 assessed as formation of G-quadruplex DNA at 20 uM by circular dichroism assay in presence of exonuclase 1 and bis-(benzimidazole)aryl
Nucleic Acid [23] = assay: Binding affinity to single stranded DNA18 assessed as formation of G-quadruplex DNA at 20 uM by UV light illumination photographic analysis in presence of exonuclase 1 and sodium cation
Nucleic Acid [24] = assay: Binding affinity to single stranded DNA23 assessed as formation of G-quadruplex DNA at 20 uM by UV light illumination photographic analysis in presence of exonuclase 1 and sodium cation
Nucleic Acid [25] = assay: Binding affinity to single stranded DNA20 assessed as formation of G-quadruplex DNA at 20 uM by circular dichroism assay in presence of KCl and exonuclase 1
Nucleic Acid [26] = assay: Binding affinity to single stranded DNA23 assessed as formation of G-quadruplex DNA at 20 uM by circular dichroism assay in presence of KCl and exonuclase 1
Nucleic Acid [27] = assay: Binding affinity to 21G telomeric DNA assessed as formation of G-quadruplex DNA at 20 uM after 5 mins by label-free fluorescence spectroscopy in presence of exonuclase 1 and KCl
Nucleic Acid [28] = assay: Binding affinity to 21G telomeric DNA assessed as formation of c-kit G-quadruplex DNA at 20 uM by UV light illumination photographic analysis in presence of exonuclase 1 and KCl
Nucleic Acid [29] = assay: Binding affinity to single stranded DNA23 assessed as formation of G-quadruplex DNA at 20 uM by circular dichroism assay in presence of sodium cation and exonuclase 1
Nucleic Acid [30] = assay: Binding affinity to 21G telomeric DNA assessed as formation of VEGF G-quadruplex DNA at 20 uM by UV light illumination photographic analysis in presence of exonuclase 1 and KCl
Nucleic Acid [31] = assay: Binding affinity to 21G telomeric DNA assessed as formation of d(G4T4g4) quadruplex DNA at 20 uM after 5 mins in Na+ cation-deficient buffer by label-free fluorescence spectroscopy in presence of exonuclase 1
Nucleic Acid [32] = assay: Binding affinity to 21G telomeric DNA assessed as formation of G-quadruplex DNA at 20 uM after 5 mins by label-free fluorescence spectroscopy in presence of exonuclase 1 and increasing concentration of KCl
Nucleic Acid [33] = assay: Binding affinity to single stranded DNA20 assessed as formation of G-quadruplex DNA at 20 uM by circular dichroism assay in presence of sodium cation and exonuclase 1
Nucleic Acid [34] = assay: Binding affinity to single stranded DNA18 assessed as formation of G-quadruplex DNA at 20 uM by circular dichroism assay in presence of lithium cation and exonuclase 1
Nucleic Acid [35] = assay: Binding affinity to 21G telomeric DNA assessed as formation of d(G4T4g4) quadruplex DNA at 20 uM after 5 mins by label-free fluorescence spectroscopy in presence of exonuclase 1 and Na+ cation
Nucleic Acid [36] = assay: Binding affinity to single stranded DNA18 assessed as formation of G-quadruplex DNA at 20 uM by UV light illumination photographic analysis in presence of exonuclase 1 and lithium cation

Measured: Activity

C[N+](C)(C)CCC[Si]1(C)C(c2ccccc2)=C(c2ccccc2)C(c2ccccc2)=C1c1ccccc1
active: Nucleic Acid [5] | Nucleic Acid [12] | Nucleic Acid [17] | Nucleic Acid [18] | Nucleic Acid [20] | Nucleic Acid [27] | Nucleic Acid [28] | Nucleic Acid [30] | Nucleic Acid [32] | Nucleic Acid [35]
inactive: all other assays above
